From PubChem BioAssay AID1963958 (Molecular Pharmacology Branch, DTP, NCI, 2024)
Values joined by “and” are separate entries in the source; they are usually repeats but may differ in a detail not shown here. Identical values can stand only once.

Test system: MDA-MB-231 multicell spheroids, viability
Test: Anticancer human tumor MDA-MB-231 cell line growth inhibition [PI3K];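 also: spheroids exposed to agents for seven days before reading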;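 as to viability, T/C: percent of vehicle control luminescence with DMSO treated spheroids as 100%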
Conditions: for viability, T/C: stronger effect = lower value
From the text: Combinatorial screen of targeted agents with the PI3K inhibitors inavolisib, alpelisib, duvelisib, and copanlisib in multi-cell type tumor spheroids
A high-throughput screen of multi-cell type tumor spheroids was designed to identify active combinations of targeted small molecules and PI3K pathway inhibitors. Complex spheroids include a stromal component modeled by human endothelial cells (HUVEC) and fibroblasts modeled by human mesenchymal stem cells (MSCs). The concentration ranges selected for each drug and investigational agent were based upon clinically achievable concentrations if the clinical Cmax of the agent was known.
Compounds. The drugs and investigational agents: inavolisib (NSC800729), alpelisib (NSC765974), duvelisib (NSC772469), copanlisib (NSC816437), ipatasertib (NSC767898), afuresertib (NSC778305), talazoparib (NSC767125), sapanisertib (NSC764658), selumetinib (NSC741078), tovorafenib (DAY101, NSC766906), vemurafenib (NSC761431), ravoxertinib (NSC781343), sotorasib (NSC818433), MRTX1133 (NSC 836407), abemaciclib (NSC 768073), palbociclib (NSC758247), venetoclax (NSC 766270), SY5609 (NSC837396), enzalutamide (NSC755605), and darolutamide (NSC825331), were obtained from the National Cancer Institute (NCI) Developmental Therapeutics Program Chemical Repository. The FDA-approved anticancer drug set is available from the NCI Developmental Therapeutics Program. […] The stock solutions were prepared in dimethyl sulfoxide (DMSO, Sigma-Aldrich, St. Louis, MO, cat. D2650) at 800-fold the tested concentration and stored at -70 degrees C prior to their use. All drugs and investigational agents were tested over a range starting from a high concentration at or near the clinical Cmax and decreasing in half-log increments. If the clinical Cmax for an agent had not been determined, the highest concentration tested was 10 microM.
Cell Culture. All cells were maintained in an incubator at 37 degrees C and 5% CO2 with 95% humidity. The PDC lines were cultured according to standard operating procedures established by the NCI PDMR (https://pdmr.cancer.gov/sops/default.htm). All PDCs were thawed and cultured in Matrigel-coated flasks prepared with a working solution of 1X Ham's F-12 nutrient mix, without supplementation (Invitrogen, Waltham, MA, cat. 11765054), 100 U/mL penicillin-streptomycin (Invitrogen, cat. 15140122), and 2.5% Matrigel (Corning Inc., Corning, NY, cat. 354248) for the first three passages. The 354836-022-R-J1-PDC, 475296-252-R-J1-PDC, and 997726-040-R-J2-PDC lines were cultured in 6A media, which includes advanced DMEM/F-12 (Thermo Fisher Scientific, cat. 12634028), 10 mM HEPES (Thermo Fisher Scientific, cat. 15630080), 1X GlutaMAX supplement (Thermo Fisher Scientific, cat. 35050061), 0.1 mg/mL primocin (InvivoGen, San Diego, CA, cat. ant-pm-2), 10% defined fetal bovine serum, heat inactivated (HyClone Laboratories Inc., Logan, UT, cat. SH30070.03HI), 50% L-WRN conditioned media (ATCC, cat. CRL-3276), 1.25 mM N-Acetyl-L-cysteine (Sigma-Aldrich, cat. A9165), 10 mM nicotinamide (Sigma-Aldrich, cat. N0636), 1X B-27 supplement (Thermo Fisher Scientific, cat. 17504044), 1X N-2 supplement (Thermo Fisher Scientific, cat. 17502048), and 10 microM Y-27632 dihydrochloride (Tocris Bioscience, Bristol, United Kingdom, cat. 1254). The 624824-186-R-J2-PDC line was cultured in 6C/Colon 1B media, which includes all 6A media components plus 50 ng/mL human EGF recombinant protein (Thermo Fisher Scientific, cat. PHG0311). […]

[1] = compound alone, run of 05/08/2023

Row | SMILES | viability, T/C (compound 0.000316 µM) | viability, T/C (compound 0.001 µM) | viability, T/C (compound 0.00316 µM) | viability, T/C (compound 0.01 µM) | viability, T/C (compound 0.0316 µM) | viability, T/C (compound 0.1 µM) | IC50 (curve of compound) | viability, T/C (compound 0.316 µM) | viability, T/C (compound 1 µM) | viability, T/C (compound 3.16 µM) | viability, T/C (compound 10 µM) | IC50 [1] [nM] | IC50 (compound alone, run of 05/09/2023) | viability, T/C (compound 0.00949 µM) | viability, T/C (compound 0.03 µM) | viability, T/C (compound 0.0949 µM) | viability, T/C (compound 0.3 µM) | viability, T/C (compound 0.949 µM) | viability, T/C (compound 3 µM)
1 | CC(=O)c1c(C)c2cnc(Nc3ccc(N4CCNCC4)cn3)nc2n(C2CCCC2)c1=O | 105% [middle of 4 runs] | 104% and 100% and 103% (2×) | 101% [middle of 4 runs] | 90% [middle of 4 runs] | 79.7% [middle of 4 runs] | 49.9% [middle of 4 runs] | 98 nM and 91.6 nM and > 100 nM |  |  |  |  |  |  |  |  |  |  |  | 
2 | CC(C)NCC(C(=O)N1CCN(c2ncnc3c2C(C)CC3O)CC1)c1ccc(Cl)cc1 (configuration not stated) |  |  |  |  | 114% [middle of 4 runs] | 102% [middle of 4 runs] | > 10000 nM and 8950 nM and 7840 nM | 97.3% [middle of 4 runs] | 87.9% [middle of 4 runs] | 70.9% [middle of 4 runs] | 49.8% [middle of 4 runs] |  |  |  |  |  |  |  | 
3 | CC(C)n1nc(-c2ccc3oc(N)nc3c2)c2c(N)ncnc21 | 107% [middle of 4 runs] | 99.7% [middle of 4 runs] | 104% and 101% (2×) and 97.3% | 84.7% [middle of 4 runs] | 67.4% [middle of 4 runs] | 38.8% [middle of 4 runs] | 66.7 nM [middle of 4 runs] |  |  |  |  |  |  |  |  |  |  |  | 
4 | CC(Nc1ccc2c(c1)OCCn1cc(N3C(=O)OCC3C(F)F)nc1-2)C(N)=O (configuration not stated) |  |  | 103% [middle of 8 runs] | 96.1% [middle of 8 runs] | 81.9% [middle of 8 runs] | 72.1% [middle of 8 runs] |  | 64.8% [middle of 8 runs] | 64.2% [middle of 8 runs] |  |  | > 1000 |  |  |  |  |  |  | 
5 | CC(Nc1ncnc2nc[nH]c12)c1cc2cccc(Cl)c2c(=O)n1-c1ccccc1 (configuration not stated) |  |  |  |  | 105% [middle of 8 runs] | 100% [middle of 8 runs] |  | 95.5% [middle of 8 runs] | 82.7% [middle of 8 runs] | 63.9% [middle of 8 runs] | 50.6% [middle of 8 runs] |  |  |  |  |  |  |  | 
6 | CCN1CCN(Cc2ccc(Nc3ncc(F)c(-c4cc(F)c5nc(C)n(C(C)C)c5c4)n3)nc2)CC1 |  |  | 102% [middle of 4 runs] | 97.1% [middle of 4 runs] | 87% [middle of 4 runs] | 67% and 57.2% and 58.3% (2×) |  | 56.5% and 44.8% and 49.5% (2×) | 49.3% [middle of 4 runs] |  |  |  |  |  |  |  |  |  | 
7 | COc1c(OCCCN2CCOCC2)ccc2c3n(c(=NC(=O)c4cnc(N)nc4)nc12)CCN3 |  |  | 99.7% [middle of 8 runs] | 79.4% [middle of 8 runs] | 61.3% [middle of 8 runs] | 46.3% [middle of 8 runs] |  | 31.6% [middle of 8 runs] | 26% [middle of 8 runs] |  |  |  | 73.8 nM [middle of 8 runs] |  |  |  |  |  | 
8 | Cc1nc(NC(=O)N2CCCC2C(N)=O)sc1-c1ccnc(C(C)(C)C(F)(F)F)c1 (configuration not stated) |  |  |  |  | 98.2% [middle of 8 runs] | 88.9% [middle of 8 runs] |  | 75.4% [middle of 8 runs] | 71.2% [middle of 8 runs] | 64.6% [middle of 8 runs] | 63% [middle of 7 runs] | > 10000 |  |  |  |  |  |  | 
9 | Cn1cnc2c(F)c(Nc3ccc(Br)cc3Cl)c(C(=O)NOCCO)cc21 |  |  |  |  |  |  | 431 nM [middle of 4 runs] |  |  |  |  |  |  | 72.7% [middle of 4 runs] | 64.9% [middle of 4 runs] | 59.5% and 57.3% (2×) and 57.6% | 53.2% [middle of 4 runs] | 47.3% [middle of 4 runs] | 34.5% [middle of 4 runs]
10 | Cn1ncnc1[C@H]1c2n[nH]c(=O)c3cc(F)cc(c23)N[C@@H]1c1ccc(F)cc1 | 114% and 106% and 107% (2×) |  | 95.2% [middle of 4 runs] | 92.4% [middle of 4 runs] | 94% [middle of 4 runs] | 88.7% [middle of 4 runs] | > 100 nM |  |  |  |  |  |  |  |  |  |  |  | 
